This note sets out measurements from paper PMC7158045 (BMC Plant Biology, 2020).

What all share (test): biochemical
Assay [1] addresses T1, ZmDRIK1-K217-S514 (Zea mays, UniProt C0P4K9).
T1 construct: kinase domain, K217-S514
T1 sequence (C0P4K9 1-514): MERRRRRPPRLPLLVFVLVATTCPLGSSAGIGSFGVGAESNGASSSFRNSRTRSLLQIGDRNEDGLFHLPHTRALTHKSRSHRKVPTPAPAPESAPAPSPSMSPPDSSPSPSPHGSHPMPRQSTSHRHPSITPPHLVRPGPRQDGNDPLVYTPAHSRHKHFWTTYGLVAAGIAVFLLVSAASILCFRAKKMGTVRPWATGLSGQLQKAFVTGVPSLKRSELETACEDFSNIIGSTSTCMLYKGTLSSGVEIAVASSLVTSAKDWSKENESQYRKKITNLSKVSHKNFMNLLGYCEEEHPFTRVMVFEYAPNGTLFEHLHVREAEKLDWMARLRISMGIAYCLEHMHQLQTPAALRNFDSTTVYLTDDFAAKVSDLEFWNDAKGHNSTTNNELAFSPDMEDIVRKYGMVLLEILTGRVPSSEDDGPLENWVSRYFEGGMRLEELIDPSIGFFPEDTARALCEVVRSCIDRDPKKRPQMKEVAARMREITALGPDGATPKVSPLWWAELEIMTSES
The conditions noted are these: read-out: dTm B, sheet ZmDRIK1-K217-S514;; DSF, Boltzmann fit, 0.1% DMSO.

The target of assay [2] is T2, ZmDRIK1-R187-P492 (Zea mays, UniProt C0P4K9).
T2 construct: kinase domain, R187-P492
T2 sequence (C0P4K9 1-514): T1 sequence (C0P4K9 1-514)
The conditions noted are these: read-out: dTm B, DSF, Boltzmann fit, 0.1% DMSO.

Assay [3] deals with T3, ZmDRIK1 (DROUGHT RESPONSIVE INACTIVE KINASE 1), kinase domain (Zea mays, UniProt C0P4K9).
T3 construct: gene ZEAMMB73_Zm00001d028770; ZmDRIK1-KD R187-S514 (kinase domain)
T3 sequence (C0P4K9 187-514): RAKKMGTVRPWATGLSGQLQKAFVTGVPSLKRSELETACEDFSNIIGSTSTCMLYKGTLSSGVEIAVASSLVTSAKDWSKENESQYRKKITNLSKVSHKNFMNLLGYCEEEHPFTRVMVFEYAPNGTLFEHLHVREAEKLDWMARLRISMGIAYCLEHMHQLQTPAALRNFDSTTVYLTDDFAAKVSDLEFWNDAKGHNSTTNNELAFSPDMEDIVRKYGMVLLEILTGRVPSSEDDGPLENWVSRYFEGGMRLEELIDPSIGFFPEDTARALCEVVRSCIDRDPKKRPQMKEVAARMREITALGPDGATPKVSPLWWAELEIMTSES
The conditions noted are these: read-out: dTm B, sheet ZmDRIK1-R187-S514;; DSF, Boltzmann fit, 0.1% DMSO.

The target of assay [4] is T4, ZmDRIK1-K217-P492 (Zea mays, UniProt C0P4K9).
T4 construct: kinase domain, K217-P492
T4 sequence (C0P4K9 1-514): T1 sequence (C0P4K9 1-514)
The conditions noted are these: read-out: dTm B, sheet ZmDRIK1-K217-P492;; DSF, Boltzmann fit, 0.1% DMSO.

Structures can show the parent of a compound that is named as a salt.

In the case of `Cc1cc(Nc2ncnc3ccc(-c4ccc(CNCCS(C)(=O)=O)o4)cc23)ccc1Oc1ccn2ncnc2c1` [HER2-Inhibitor-1], the ΔTm at 10 µM was 0.102 °C in assay [1], 0.197 °C in assay [2], -0.782 °C in assay [3] and -0.972 °C in assay [4].

For the compound `O=C(Nc1nc2cccc(-c3ccc(CN4CCS(=O)(=O)CC4)cc3)n2n1)C1CC1` [Filgotinib (GLPG0634)], the ΔTm at 10 µM is -0.594 °C in assay [1], -0.607 °C in assay [2], -0.878 °C in assay [3] and -1.16 °C in assay [4].

Take `C[C@@H](N)[C@H]1CC[C@H](C(=O)Nc2ccncc2)CC1` [Y-27632 2HCl]: the ΔTm at 10 µM in assay [1] was -0.475 °C; in assay [2] it was -0.155 °C; in assay [3] it was -0.584 °C; in assay [4], -1.25 °C.

Turning to `COc1cc2/c(=N/c3ccc(Br)cc3F)nc[nH]c2cc1OCC1CCN(C)CC1` [Vandetanib (ZD6474)], the ΔTm at 10 µM in assay [1] was -0.239 °C; in assay [2], -0.154 °C; in assay [3], -0.824 °C; in assay [4] it was -0.91 °C.

Take `CCCNC(=O)Nc1ccc(Oc2ncnc3cc(OC)c(OC)cc23)cc1Cl` [KRN 633]: the ΔTm at 10 µM in assay [1] was -0.102 °C; in assay [2] it was -0.332 °C; in assay [3], -1.02 °C; in assay [4], -0.52 °C.

Take `CC[C@H](Nc1ncnc2[nH]cnc12)c1nc2cccc(F)c2c(=O)n1-c1ccccc1` [CAL-101 (Idelalisib)]: the ΔTm at 10 µM in assay [1] is -0.31 °C; in assay [2] it was -0.326 °C; in assay [3] it was -0.612 °C; in assay [4], -0.995 °C.

Take `COc1cc2c(N3CCN(C(=O)Nc4ccc(OC(C)C)cc4)CC3)ncnc2cc1OCCCN1CCCCC1` [Tandutinib (MLN518)]: the ΔTm at 10 µM is -0.303 °C in assay [1], -0.158 °C in assay [2], -0.869 °C in assay [3] and -0.971 °C in assay [4].

Consider `CC[C@@H]1C(=O)N(C)c2cnc(Nc3ccc(C(=O)N[C@H]4CC[C@H](N5CCN(CC6CC6)CC5)CC4)cc3OC)nc2N1C(C)C` [Volasertib (BI 6727)], for which the ΔTm at 10 µM in assay [1] is -0.29 °C; in assay [2], -0.282 °C; in assay [3], -0.792 °C; in assay [4], -1.3 °C.

Take `Cc1nc(Nc2ncc(C(=O)Nc3c(C)cccc3Cl)s2)cc(N2CCN(CCO)CC2)n1` [Dasatinib]: the ΔTm at 10 µM is -0.388 °C in assay [1], -0.493 °C in assay [2], -0.74 °C in assay [3] and -1.24 °C in assay [4].

As for `CC(=O)Nc1cccc(-n2c(=O)n(C3CC3)c(=O)c3c(Nc4ccc(I)cc4F)n(C)c(=O)c(C)c32)c1` [Trametinib (GSK1120212)], the ΔTm at 10 µM in assay [1] was -0.496 °C; in assay [2] it was -0.327 °C; in assay [3], -0.482 °C; in assay [4], -1.15 °C.

With `COC(=O)c1ccc2c(c1)NC(=O)/C2=C(\Nc1ccc(N(C)C(=O)CN2CCN(C)CC2)cc1)c1ccccc1` [Nintedanib (BIBF 1120)], the ΔTm at 10 µM in assay [1] was -0.223 °C; in assay [2], -0.154 °C; in assay [3] it was -0.677 °C; in assay [4], -1.32 °C.

As for `CCCCCCCCCCCCc1ccc(S(=O)(=O)Nc2nncs2)cc1` [PHT-427], the ΔTm at 10 µM in assay [1] was -0.296 °C; in assay [2] it was -0.255 °C; in assay [3], -1.24 °C; in assay [4], -1.79 °C.

For the compound `CC(C)(C)Cn1c(N)nc2ccc(-c3[nH]c(C(C)(C)C)nc3-c3ccc(F)cc3)nc21` [LY2228820], the ΔTm at 10 µM in assay [1] was -0.619 °C; in assay [2] it was -0.267 °C; in assay [3], -0.95 °C; in assay [4] it was -0.453 °C.

For the compound `O=S(=O)(c1cccc2cnccc12)N1CCCNCC1` [Fasudil (HA-1077) HCl], the ΔTm at 10 µM is -0.253 °C in assay [1], -0.0771 °C in assay [2], -0.908 °C in assay [3] and -0.949 °C in assay [4].

On to `O=C1NCCc2[nH]c(-c3ccncc3)cc21` [PHA-767491], for which the ΔTm at 10 µM in assay [1] was -0.125 °C; in assay [2], -0.213 °C; in assay [3], -0.701 °C; in assay [4] it was -0.984 °C.

For `COc1cc2c(Oc3ccc4[nH]c(C)cc4c3F)ncnc2cc1OCCCN1CCCC1` [Cediranib (AZD2171)], the ΔTm at 10 µM in assay [1] was -0.229 °C; in assay [2], -0.191 °C; in assay [3], -0.769 °C; in assay [4], -1.09 °C.

For `COc1ccc(COc2cc3oc(=O)c4cc(C(C)O)ccc4c3cc2OC)cc1` (stereo not drawn) [Palomid 529 (P529)], the ΔTm at 10 µM in assay [1] was -0.134 °C; in assay [2] it was -0.229 °C; in assay [3] it was -0.623 °C; in assay [4] it was -0.76 °C.

For the compound `CN1CCN(c2cccc(Nc3nc4c(-c5ccc(S(C)(=O)=O)cc5)cccn4n3)c2)CC1` [CEP-33779], the ΔTm at 10 µM was -0.33 °C in assay [1], -0.284 °C in assay [2], -0.54 °C in assay [3] and -0.95 °C in assay [4].

Turning to `Cc1ccc([N+](=O)[O-])cc1S(=O)(=O)N(C)/N=C/c1cnc2ccc(Br)cn12` [PIK-75], the ΔTm at 10 µM in assay [1] is -0.221 °C; in assay [2] it was -0.296 °C; in assay [3] it was -0.734 °C; in assay [4] it was -1.46 °C.

With `COc1ccc2cc(-c3nc(-c4ccc([S+](C)[O-])cc4)[nH]c3-c3ccncc3)ccc2c1` (stereo not drawn) [Tie2 kinase inhibitor], the ΔTm at 10 µM was -4.75 °C in assay [1], -0.238 °C in assay [2], -0.713 °C in assay [3] and -1.05 °C in assay [4].

With `CCn1c(N)c(C(=O)NC)c(=O)c2ccc(C#C[C@@](C)(O)COC)nc21` [SAR131675], the ΔTm at 10 µM in assay [1] was -0.272 °C; in assay [2] it was -0.181 °C; in assay [3], -0.688 °C; in assay [4], -0.827 °C.

Turning to `Cc1cnc(-c2cnc(NCCNc3ccc(C#N)cn3)nc2-c2ccc(Cl)cc2Cl)[nH]1` [CHIR-99021 (CT99021) HCl], the ΔTm at 10 µM is -0.494 °C in assay [1], -0.404 °C in assay [2], -0.639 °C in assay [3] and -0.928 °C in assay [4].

Regarding `O=C(/C=C/c1ccc(O)c(O)c1)c1ccc(O)cc1O` [Butein], the ΔTm at 10 µM in assay [1] was found to be 0.982 °C; in assay [2], 0.882 °C; in assay [3] it was 0.686 °C; in assay [4], 1.78 °C.

As for `O=c1ncn2nc(Sc3ccc(F)cc3F)ccc2c1-c1c(Cl)cccc1Cl` [VX-745], the ΔTm at 10 µM in assay [1] was -0.414 °C; in assay [2], -0.394 °C; in assay [3], -0.881 °C; in assay [4], -1.03 °C.

Regarding `CC(C)N(CCC(=O)c1ccc2ccccc2c1)Cc1ccccc1` [ZM 39923 HCl], the ΔTm at 10 µM in assay [1] is -0.827 °C; in assay [2], -0.636 °C; in assay [3] it was -1.58 °C; in assay [4], -2.03 °C.

As to `C#Cc1cccc(Nc2ncnc3cc4c(cc23)OCCOCCOCCO4)c1` [Icotinib], the ΔTm at 10 µM is -0.34 °C in assay [1], -0.388 °C in assay [2], -0.618 °C in assay [3] and -1.1 °C in assay [4].

On to `CCc1nc(-c2cccc(C)c2)c(-c2ccnc(NC(=O)c3ccccc3)c2)s1` [TAK-715], for which the ΔTm at 10 µM in assay [1] was -0.442 °C; in assay [2], -0.496 °C; in assay [3] it was -0.0163 °C; in assay [4] it was -1.08 °C.

Regarding `Cc1cc([C@@H](C)Nc2ccccc2C(=O)O)c2nc(N3CCOCC3)cc(=O)n2c1` [AZD6482], the ΔTm at 10 µM was -0.29 °C in assay [1], -0.2 °C in assay [2], -0.715 °C in assay [3] and -1.04 °C in assay [4].

On to `CNC(=O)c1ccccc1Sc1ccc2c(/C=C/c3ccccn3)n[nH]c2c1` [Axitinib], for which the ΔTm at 10 µM was -0.335 °C in assay [1], -0.367 °C in assay [2], -0.702 °C in assay [3] and -1.24 °C in assay [4].

Regarding `CC(=O)c1c(C)c2cnc(Nc3ccc(N4CCNCC4)cn3)nc2n(C2CCCC2)c1=O` [Palbociclib (PD-0332991) HCl], the ΔTm at 10 µM in assay [1] is -0.31 °C; in assay [2], -0.154 °C; in assay [3] it was -0.906 °C; in assay [4], -0.775 °C.
